# Results as given in US20210405025A1, “IDENTIFYING COMPOUNDS FOR TREATING CANCER AND USE THEREOF” (THE UAB RESEARCH FOUNDATION, priority 2018, published 2021).
# Counter-ions that a name gives are not always drawn.
# System: relapsed AML cells
# Test: Drug sensitivity assay, 1,536-well, 3-day culture with individual approved drugs at 10 μM, viability by alamarBlue
# Format: cell-based, human
# Settings: number of relapsed AML cases out of 18 tested with >70% cell death; 10 μM, 3-day culture
# Description: Drug sensitivity assays were performed using a 1,536-well platform where all cells and reagents were deposited in wells using an acoustic liquid handling unit that is highly accurate for dispensing of nanoliter volumes of liquid. […] After dispensing the cells into the wells, an independent drug at a known concentration is added to each well and incubated with the cells. After three days, the percentage of live cells in each well is determined to assess the killing efficiency of each compound. […] Cell viability assays are known to those of skill in the art. See, for example, Pemovska et al., Individualized systems medicine strategy to tailor treatments for patients with chemorefractory acute myeloid leukemia. Cancer Discovery 3:1416-1429, 2013; Pabst et al., Identification of small molecules that support human leukemia stem cell activity ex vivo. Nature Methods 11:436-442, 2014; Baccelli et al., A novel approach for the identification of efficient combination therapies in primary human acute myeloid leukemia specimens. Blood Cancer Journal 7:e529, 2017. In studies described herein, the 1,536-well format was utilized, which allowed for use of four times fewer cells as well as less drug and media components due to the small assay volume of 5 microliters. […] Other compounds like CellTiter-Glo (Promega, Madison, Wis.) are equally appropriate reagents for determining cell viability.
# Conditions for the drug screening assays were as described in Pabst et al., Identification of small molecules that support human leukemia stem cell activity ex vivo, Nature Methods 11:436-442, 2014). Using this protocol, cells were cultured in Iscove's Modified Dulbecco's Medium (IMDM), 15% BIT (bovine serum albumin, insulin, transferrin; Stem Cell Technologies 09500 (Vancouver, Calif.)), 100 ng/ml SCF (Shenandoah 100-04 (Warwick, Pa.)), 50 ng/ml FLT3L (Shenandoah 100-21), 20 ng/ml IL-3 (Shenandoah 100-80), 20 ng/ml G-CSF (Shenandoah 100-72), 10^-4 M β-mercaptoethanol, gentamicin (50 μg/ml) and ciprofloxacin (10 μg/ml).
# Cells were removed from liquid nitrogen and placed in a 37° C. bath, just until thawed. For 1,536-well screens utilizing 6,000 wells about 100 million cells were thawed. The volume was doubled with pre-warmed culture media and placed on ice for about one to two minutes. The cells were brought to a final volume of about 8 to 10 mL before spinning down at 1,100 rpm for 5 min at 10° C. The pelleted cells were resuspended in 10 mL of culture media and plated in a tissue-culture treated T75 flask at a density of 1 to 2 million cells/ml. The cells were cultured overnight prior to fluorescence-activated cell sorting of viable cells on the following day.
# After cells were cultured overnight, a cell scraper was used to remove any cells that adhered to the plastic. The cells were gently pipetted up and down to break up aggregates. Then, the entire volume was transferred to a 50 mL conical tube through a 70 micron cell strainer to remove cell clumps. The T75 flask was rinsed and scraped with about 10 mL HBSS and transferred to the same 50 mL conical tube through the strainer. The harvested cells were spun down at 1,100 rpm for 5 min at 10° C. The cells were then resuspendd in about 300-500 microliters FACS buffer (HBSS+2% FBS+1× propidium iodide) and transferred to a FACS tube. The tube was placed on ice and viable cells that are forward- and side-scatter gated on viable myeloid blasts were sorted by FACS (the scatter gate should exclude small lymphocytes, large myeloid cells, and debris). After sorting the required number of viable cells, the cells were spun down at 1,100 rpm for 5 min at 10° C. and subsequently resuspended at 4,000-4,500 cells per 5 microliter volume of complete culture media with growth factors and penicillin/streptomycin.
row,Molecule,#Cases >70% cell death
1,C[C@@H](Oc1cc(-n2cnc3ccc(CN4CCN(C)CC4)cc32)sc1C(N)=O)c1ccccc1C(F)(F)F [GSK 461364],9
2,Cc1ccc2nc(N)[nH]c(=O)c2c1Sc1ccncc1 [NOLATREXED DIHYDROCHLORIDE],1
3,O=C(Nc1ccc(-c2ccnc(Nc3ccc(N4CCOCC4)cc3)n2)cc1)C1CCCN1 (stereo not drawn) [XL019],3
4,C=C1C[C@H]2[C@@H]3C=C(C)C4=CC(=O)CC[C@]4(C)[C@H]3CC[C@]2(C)[C@@]1(OC(C)=O)C(C)=O [MELENGESTROL ACETATE],2
5,c1ccc(-c2ccc(C(c3ccccc3)n3ccnc3)cc2)cc1 (stereo not drawn) [BIFONAZOLE],1
6,O=S(=O)([O-])CCSSCCS(=O)(=O)[O-].[Na+].[Na+] [DIMESNA],1
7,CC[C@H](CC#N)OC(=O)N[C@@H](C)c1cccc(NC(=O)Nc2ccc(-c3cnco3)c(OC)c2)c1 [AVN944],10
8,COc1ccc(CN2CCN(C(c3ccc(F)cc3)c3ccc(F)cc3)CC2)c(OC)c1OC [LOMERIZINE],7
9,CCN(CC)CCOc1ccc(C(=C(Cl)c2ccccc2)c2ccccc2)cc1 [CLOMIFENE],10
10,COC(=O)Nc1nc2cc(C(=O)c3ccc(F)cc3)ccc2[nH]1 [FLUBENDAZOLE],2
11,O=C1NCCc2[nH]c(-c3ccncc3)cc21 [PHA-767491],18
12,CO[C@H]1C(=O)[C@]2(C)[C@@H](OC)C[C@H]3OC[C@@]3(OC(C)=O)[C@H]2[C@H](OC(=O)c2ccccc2)[C@]2(O)C[C@H](OC(=O)[C@H](O)[C@@H](NC(=O)OC(C)(C)C)c3ccccc3)C(C)=C1C2(C)C [CABAZITAXEL],5
13,COc1ccc2c(c1)/C(=C/c1cnc[nH]1)C(=O)N2 [SU-9516],1
14,C[n+]1c2cc(N)ccc2cc2ccc(N)cc21.[Cl-] [ACRIFLAVINIUM HYDROCHLORIDE],5
15,NONOXYNOL-9,2
16,COc1cc(NC(C)CCCN)c2ncccc2c1 (stereo not drawn) [PRIMAQUINE],12
17,CC1=C(C)C(=O)C(C(CCCCCC(=O)O)c2ccccc2)=C(C)C1=O (stereo not drawn) [SERATRODAST],1
18,EXATECAN MESYLATE,12
19,CC(C)/N=c1\cc2n(-c3ccc(Cl)cc3)c3ccccc3nc-2cc1Nc1ccc(Cl)cc1 [CLOFAZIMINE],6
20,COc1cc(Nc2c(C#N)cnc3cc(OCCCN4CCN(C)CC4)c(OC)cc23)c(Cl)cc1Cl [BOSUTINIB],12
21,CC(=O)[C@H]1CC[C@H]2[C@@H]3C=CC4=CC(=O)CC[C@@]4(C)[C@@H]3CC[C@]12C [DYDROGESTERONE],1
22,O=C(c1ccc(/C=C/c2n[nH]c3ccccc23)cc1)N1CCNCC1 [KW-2449],9
23,CC(=O)[C@@]1(O)CC[C@H]2[C@@H]3C[C@H](C)C4=CC(=O)C=C[C@]4(C)[C@@]3(F)[C@@H](O)C[C@@]21C [FLUOROMETHOLONE],2
24,COc1cccc2c1C(=O)c1c(O)c3c(c(O)c1C2=O)C[C@@](O)(C(=O)CO)C[C@@H]3O[C@H]1C[C@H](N)[C@H](O)[C@H](C)O1 [DOXORUBICIN],18
25,COc1c(C)c2c(c(O)c1C/C=C(\C)CCC(=O)OCCN1CCOCC1)C(=O)OC2 [MYCOPHENOLATE MOFETIL],5
26,CC(=O)Nc1ccc([C@H](C)C(=O)Nc2ncc(C(C)C)s2)cc1 [PHA-690509],11

row,Molecule,#Cases >70% cell death
1,C#C[C@]1(O)CC[C@H]2[C@@H]3CCc4cc(OC5CCCC5)ccc4[C@H]3CC[C@@]21C [QUINESTROL],15
2,Cc1cc(N)c2ccccc2[n+]1CCCCCCCCCC[n+]1c(C)cc(N)c2ccccc21 [DEQUALINIUM CHLORIDE],17
3,CC(=O)O[C@H]1C[C@H](O[C@H]2[C@@H](O)C[C@H](O[C@H]3[C@@H](O)C[C@H](O[C@H]4CC[C@@]5(C)[C@H](CC[C@@H]6[C@@H]5C[C@@H](O)[C@]5(C)[C@@H](C7=CC(=O)OC7)CC[C@]65O)C4)O[C@@H]3C)O[C@@H]2C)O[C@H](C)[C@H]1O[C@@H]1O[C@H](CO)[C@@H](O)[C@H](O)[C@H]1O [LANATOSIDE C],18
4,COc1ccc(F)c(F)c1C(=O)c1cnc(NC2CCN(S(C)(=O)=O)CC2)nc1N [R-547],18
5,O=C(Nc1cccnn1)N1CCC(=Cc2cccc(Oc3ccc(C(F)(F)F)cn3)c2)CC1 [PF-4457845],1
6,CC(C)(C)CC(C)(C)c1cc(Cc2cc(C(C)(C)CC(C)(C)C)cc(-n3nc4ccccc4n3)c2O)c(O)c(-n2nc3ccccc3n2)c1 [BISOCTRIZOLE],1
7,CC[C@@H]1/C=C(\C)C[C@H](C)C[C@H](OC)[C@H]2O[C@@](O)(C(=O)C(=O)N3CCCC[C@H]3C(=O)O[C@H](/C(C)=C/[C@@H]3CC[C@H](Cl)[C@H](OC)C3)[C@H](C)[C@@H](O)CC1=O)[C@H](C)C[C@@H]2OC [PIMECROLIMUS],2
8,COc1c(C)cnc(Cn2cnc3c(Cl)nc(N)nc32)c1C [CNF-2024],18
9,Clc1ccc(C(Cn2ccnc2)OCc2ccsc2Cl)c(Cl)c1 (stereo not drawn) [TIOCONAZOLE],1
10,CCCCN(CCCC)CCCOC(=O)c1ccc(N)cc1 [BUTACAINE],1
11,CCCCCCCCOc1ccccc1C(=O)Nc1ccc(C(=O)OCC[N+](C)(CC)CC)cc1 [OTILONIUM BROMIDE],4
12,CCOc1ccc2nc(S(N)(=O)=O)sc2c1 [ETHOXZOLAMIDE],2
13,O=C(/C=C/c1cccnc1)NCCCCC1CCN(C(=O)c2ccccc2)CC1 [APO-866],17
14,CC1(C)CC(=O)c2c(C(F)(F)F)nn(-c3ccc(C(N)=O)c(N[C@H]4CC[C@H](O)CC4)c3)c2C1 [PF-04928473],18
15,CN(C)C[C@@H]1CCn2cc(c3ccccc32)C2=C(C(=O)NC2=O)c2cn(c3ccccc23)CCO1 [LY333531],12
16,CCC(=O)O[C@]1(C(=O)CCl)[C@@H](C)C[C@H]2[C@@H]3CCC4=CC(=O)C=C[C@]4(C)[C@@]3(F)[C@@H](O)C[C@@]21C [CLOBETASOL PROPIONATE],4
17,C[C@@H]1O[C@@H](O[C@H]2C[C@@H](O)[C@]3(CO)[C@H]4[C@H](O)C[C@]5(C)[C@@H](C6=CC(=O)OC6)CC[C@]5(O)[C@@H]4CC[C@]3(O)C2)[C@H](O)[C@H](O)[C@H]1O [OUABAIN],18
18,ABAMECTIN,18
19,COc1ccc(S(=O)(=O)N(C(C)=O)c2ccccc2/C=C/c2cc[n+]([O-])cc2)cc1 [HMN-214],5
20,COc1ccc2c(c1)[nH]c1c(C)nccc12 [HARMINE],3
21,O=C(CCCCCCC(=O)Nc1ccccc1)NO [VORINOSTAT],18
22,Cc1ccc2c(Br)cc(Br)c(OC(=O)c3ccccc3)c2n1 [BROXALDINE],2
23,C[C@H]1O[C@@H](O[C@H]2[C@@H](O)C[C@H](O[C@H]3[C@@H](O)C[C@H](O[C@H]4CC[C@@]5(C)[C@H](CC[C@@H]6[C@@H]5C[C@@H](O)[C@]5(C)[C@@H](C7=CC(=O)OC7)CC[C@]65O)C4)O[C@@H]3C)O[C@@H]2C)C[C@H](O)[C@@H]1O [DIGOXIN],18
24,C=CC(N)CCC(=O)O (stereo not drawn) [VIGABATRIN],13
25,COc1cc(/C=C/C(=O)CC(=O)/C=C/c2ccc(O)c(OC)c2)ccc1O [CURCUMIN],1
